The target of one series is T1, 5-HT re-uptake (Rattus norvegicus, UniProt P31652).
T1 construct: Synaptosomes from rat brain areas were freshly isolated for the purposes of these in-vitro studies; from tissue; host or cells: rat brain synaptosomes (P2 fraction), medulla and pons of male rats
The series can be described thus: Measurement of serotonin re-uptake in rat brain synaptosomes. The conditions noted are these: synaptosomes (P2 fraction) from medulla and pons region of male rat brains. The class given is biochemical. The procedure:
Synaptosomes from rat brain areas were freshly isolated for the purposes of these in-vitro studies. In each case a “P2” fraction was used, which was prepared in accordance with the instructions given by Gray and Whittaker (E. G. Gray und V. P. Whittaker (1962) J. Anat. 76, 79-88). For 5HT uptake these vesicular particles were isolated from the medulla and pons region of male rat brains.
(§1) A detailed description of the method can be found in the literature (M. Ch. Frink, H.-H. Hennies, W. Englberger, M. Haurand and B. Wilffert (1996) Arzneim.-Forsch./Drug Res. 46 (III), 11, 1029-1036).

The target in the next series is T2, NA re-uptake (Rattus norvegicus, UniProt Q63380).
T2 construct: Synaptosomes from rat brain areas were freshly isolated for the purposes of these in-vitro studies; from tissue; host or cells: rat brain synaptosomes (P2 fraction), hypothalamus of male rats
The series can be described thus: Measurement of noradrenalin re-uptake in rat brain synaptosomes. In kind it is biochemical. Conditions: synaptosomes (P2 fraction) from hypothalamus of male rat brains. The procedure:
Synaptosomes from rat brain areas were freshly isolated for the purposes of these in-vitro studies. In each case a “P2” fraction was used, which was prepared in accordance with the instructions given by Gray and Whittaker (E. G. Gray und V. P. Whittaker (1962) J. Anat. 76, 79-88). For NA uptake these vesicular particles were isolated from the hypothalamus of male rat brains.
as §1

Structures can show the parent of a compound that is named as a salt.

T1 sequence (P31652 whole entry): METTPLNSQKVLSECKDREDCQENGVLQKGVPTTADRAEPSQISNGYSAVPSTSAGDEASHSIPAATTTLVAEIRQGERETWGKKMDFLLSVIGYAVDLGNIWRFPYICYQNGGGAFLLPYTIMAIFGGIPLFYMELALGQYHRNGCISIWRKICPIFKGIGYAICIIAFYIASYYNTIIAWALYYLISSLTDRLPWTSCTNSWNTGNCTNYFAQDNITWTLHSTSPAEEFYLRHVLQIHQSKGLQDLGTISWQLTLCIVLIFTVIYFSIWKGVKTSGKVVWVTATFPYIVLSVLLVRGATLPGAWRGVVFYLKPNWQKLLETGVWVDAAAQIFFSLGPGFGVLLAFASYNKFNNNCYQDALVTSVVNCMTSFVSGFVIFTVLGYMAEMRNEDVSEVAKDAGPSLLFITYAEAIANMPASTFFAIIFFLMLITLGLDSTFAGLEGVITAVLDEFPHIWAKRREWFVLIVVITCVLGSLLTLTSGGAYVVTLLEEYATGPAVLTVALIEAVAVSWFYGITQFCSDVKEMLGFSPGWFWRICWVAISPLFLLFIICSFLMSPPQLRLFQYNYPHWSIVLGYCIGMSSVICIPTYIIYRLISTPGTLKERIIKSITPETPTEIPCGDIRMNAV
T2 sequence (Q63380 1-617): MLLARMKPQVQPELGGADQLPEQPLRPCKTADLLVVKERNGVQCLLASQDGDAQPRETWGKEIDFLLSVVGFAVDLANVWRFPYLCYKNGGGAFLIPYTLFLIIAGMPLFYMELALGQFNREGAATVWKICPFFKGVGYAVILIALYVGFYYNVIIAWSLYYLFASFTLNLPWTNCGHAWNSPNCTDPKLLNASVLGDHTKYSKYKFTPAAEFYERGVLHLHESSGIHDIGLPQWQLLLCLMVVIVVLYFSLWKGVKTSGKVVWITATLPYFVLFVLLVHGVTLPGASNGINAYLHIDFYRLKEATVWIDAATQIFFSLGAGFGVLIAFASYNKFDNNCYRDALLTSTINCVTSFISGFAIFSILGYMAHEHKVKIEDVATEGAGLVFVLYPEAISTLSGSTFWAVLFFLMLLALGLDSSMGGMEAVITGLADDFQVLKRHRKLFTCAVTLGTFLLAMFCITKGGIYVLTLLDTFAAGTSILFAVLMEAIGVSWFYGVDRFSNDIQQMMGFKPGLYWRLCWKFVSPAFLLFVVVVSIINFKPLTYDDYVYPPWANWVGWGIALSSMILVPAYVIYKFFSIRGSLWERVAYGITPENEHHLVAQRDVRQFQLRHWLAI

With `CCOC(=O)C12Cc3ccccc3C(CN(C(=O)Nc3ccccc3)C1)C2=O` (stereo not drawn), the melting point (as a rule, the temperature of the solid-liquid transition) lay within 199 to 203 °C. Turning to `CCOC(=O)C12Cc3ccc(C#N)cc3C(CN(Cc3ccccc3)C1)C2=O` (stereo not drawn), the melting point lay within 158 to 160 °C.

`CCOC(=O)C12Cc3ccccc3C(CN(Cc3ccccc3)C1)C2=O` (stereo not drawn) returned a melting point of 117 to 119 °C. The same measure, in the same setting: next, `CCOC(=O)C12Cc3cc(OC)ccc3C(CN(Cc3ccccc3)C1)C2=O` (stereo not drawn): 84 to 85 °C. Take `CCOC(=O)C12Cc3ccccc3C(CN(C)C1)C2=O` (stereo not drawn) [Compound 9, Ethyl-N-methyl-11-oxo-1,3,4,6-tetrahydro-1,5-methano-3-benzazocine-5(2H)-carboxylate hydrochloride]: the “5-HT re-uptake [10 μm], % inhibition” value on 5-HT re-uptake was 77%. At NA re-uptake, the “NA re-uptake [10 μm], % inhibition” value came out at 80%.

Source of the values: patent US20080312268A1, “Substituted tricyclic piperidone compounds” (Gruenenthal GMBH, priority 2005, published 2008).
